Patent US11896604B2, “Composition comprising HMSs/HMOs and use thereof” (Glycom A/S, priority 2014, dated 2024)

How the values were obtained:
[1] = system: IBS-D patients; settings: cited from earlier work
[2] = system: human LS174T cell culture model of goblet cells; experiment: Mucosal barrier function: goblet cell gene expression by quantitative RT-PCR; type: cell-based; settings: 5 mg HMO/ml, compared to control cultures
Procedure: 2′-FL and LNnT are tested with respect to their ability to induce MUC2, TFF3, EIMβ, CHST5, and GAL3ST2 expression in the human LS174T cell culture model of goblet cells. The human LS174T cell line is obtained from the American Type Culture Collection (ATCC). LS174T cells are maintained in minimum essential medium (MEM) supplemented according to instructions at 37° C. in 5% CO2. 2′-FL and LNnT are dissolved in cell culture grade water to the required concentration. The LS174T cells are treated with the HMO solution containing 0 or 5 mg HMO/ml. The LS174T cells are collected and suspended in Trizol reagent and total RNA is isolated using an RNA analysis kit (Qiagen) according to the manufacturer's instructions and the RNA isolates are quantified using Nanodrop analysis (Thermo Fisher Scientific). RNA isolates are reverse transcribed using a high capacity cDNA Reverse Transcription Kit (Applied Biosystems) to create cDNA, which is then used to assess gene expression via quantitative RT-PCR. For the quantitative RT-PCR, specific TaqMAN gene expression assays are obtained from Applied Biosystems, which include expression assays for MUC2, TFF3, CHST5 and GAL3ST2. Quantitative real-time PCR is performed using TaqMAN PCR Master Mix (Applied Biosystems). Reactions are run in duplicates in a 384-well plate using an Applied Biosystems 7900HT Fast Real-Time PCR System. The results are analysed using SDS 2.3 software and calculated by delta delta Ct method. All samples are normalized to Gus-β expression and fold induction is calculated over untreated controls. Gene expression is expressed as fold increase compared to HMO-free control cells. The experiment is repeated three times.

Row | Compound | bowel movement [1] | expression of the MUC2 gene [2] | expression of the TFF3 gene [2] | induction of CHST5 [2] | induction of GAL3 ST2 [2]
1 | CO[C@H]1/C=C/O[C@@]2(C)Oc3c(C)c(O)c4c(O)c(c5c(nc6cc(C)ccn65)c4c3C2=O)NC(=O)/C(C)=C\C=C\[C@H](C)[C@H](O)[C@@H](C)[C@@H](O)[C@@H](C)[C@H](OC(C)=O)[C@@H]1C [rifaximin] | reduce | – | – | – | –
2 | 2′-fucosyllactose [2′-FL] | – | increases | increases | minimal induction | lack of induction
3 | CC(=O)N[C@H]1[C@H](O[C@H]2[C@@H](O)[C@@H](CO)O[C@@H](O[C@H]3[C@H](O)[C@@H](O)C(O)O[C@@H]3CO)[C@@H]2O)O[C@H](CO)[C@@H](O[C@@H]2O[C@H](CO)[C@H](O)[C@H](O)[C@H]2O)[C@@H]1O (mixture of isomers) [LNnT, lacto-N-neotetraose] | – | increases | increases | minimal induction | lack of induction
